Reference: patent US20200085776A1, “Methods of Reducing C-Reactive Protein and/or Treating Cardiovascular Disease” (CARDAX, INC., priority 2018, published 2020)

System: C-reactive protein (CRP)
Test: CRP (hs-CRP) in blood, CHASE clinical study
Assay type: in vivo, human
Conditions: Group Z 48 mg BID
Description: This is a two-part study comprising Part I and Part II. Following screening, Part I consists of a randomized, double-blind, placebo controlled dosing period of up to 12 weeks. The study shall be conducted at one or more study sites in Hawaii. Approximately 360 subjects qualified after completion of screening procedures shall be randomized in a 1:1:1 ratio to one of three treatment groups, per Table 1.
The Part I 12-week double-blind dosing period commences with V2, including randomization and first dose of study product, and continues with study visits at Week 1-2 (V3), Week 4 (V4), Week 8 (V5), and Week 12 (V6). V6 procedures will conclude Part I.
Blood shall be obtained at each visit for CRP. The screening specimen shall be processed at the local lab and reported to the study staff for eligibility determination; CRP samples at V7 and V8 may also be processed locally and reported directly to study staff. Samples for CRP from V2 through V6 may be batched, processed, and reported as specified in the Laboratory Manual.
At each these visits, blood was obtained for measurement of CRP, among other parameters. Table 7A provides a summary of the CRP measurements (mg/L) at each visit and Table 7B provides a summary of the differences of CRP levels between V2 and V6.

[1] = V1 screening, subjects with baseline level greater than 2.0
[2] = V2 baseline pre-dose, all subjects
[3] = V2 baseline pre-dose, subjects not taking a hypertension agent
[4] = V2 baseline pre-dose, subjects not taking any cardiac therapeutic agent
[5] = V2 baseline pre-dose, subjects not taking statins
[6] = V2 baseline pre-dose, subjects taking an anti-diabetic agent
[7] = V2 baseline pre-dose, subjects with CAD
[8] = V2 baseline pre-dose, subjects with DM2, hypertension and hyperlipidemia but not CAD
[9] = V2 baseline pre-dose, subjects with Diabetes Mellitus Type II
[10] = V2 baseline pre-dose, subjects with baseline level greater than 2.0
[11] = V2 baseline pre-dose, subjects with hyperlipidemia
[12] = V3 Week 1-2, subjects with baseline level greater than 2.0
[13] = V4 Week 4, subjects with baseline level greater than 2.0
[14] = V5 Week 8, subjects with baseline level greater than 2.0
[15] = V6 Week 12, subjects not taking a hypertension agent
[16] = V6 Week 12, subjects not taking any cardiac therapeutic agent
[17] = V6 Week 12, subjects not taking statins
[18] = V6 Week 12, subjects taking an anti-diabetic agent

CC1=C(/C=C/C(C)=C/C=C/C(C)=C/C=C/C=C(C)/C=C/C=C(C)/C=C/C2=C(C)C(=O)C(O)CC2(C)C)C(C)(C)CC(O)C1=O (stereo not drawn) [Astaxanthin, astaxanthin]
CRP Max (V1 screening, all subjects): 14.17 mg/L
CRP Mean (SD) (V1 screening, all subjects): 5.12 (3.39) mg/L
CRP Median (V1 screening, all subjects): 4.20 mg/L
CRP Min (V1 screening, all subjects): 2.03 mg/L
CRP Max [1]: 14.17 mg/L
CRP Mean (SD) [1]: 5.65 (3.56) mg/L
CRP Median [1]: 4.94 mg/L
CRP Min [1]: 2.03 mg/L
CRP Max [2]: 8.51 mg/L
CRP Mean (SD) [2]: 4.28 (2.32) mg/L
CRP Median [2]: 4.68 mg/L
CRP Min [2]: 1.27 mg/L
CRP Max [3]: 6.30 mg/L
CRP Mean (SD) [3]: 4.52 (1.86) mg/L
CRP Median [3]: 4.68 mg/L
CRP Min [3]: 2.59 mg/L
CRP Max [4]: 8.04 mg/L
CRP Mean (SD) [4]: 4.55 (2.02) mg/L
CRP Median [4]: 4.68 mg/L
CRP Min [4]: 1.81 mg/L
CRP Max [5]: 8.51 mg/L
CRP Mean (SD) [5]: 4.97 (2.51) mg/L
CRP Median [5]: 4.83 mg/L
CRP Min [5]: 1.83 mg/L
CRP Max [6]: 8.51 mg/L
CRP Mean (SD) [6]: 4.48 (2.24) mg/L
CRP Median [6]: 4.98 mg/L
CRP Min [6]: 1.27 mg/L
CRP Max [7]: 6.68 mg/L
CRP Mean (SD) [7]: 3.49 (2.23) mg/L
CRP Median [7]: 3.12 mg/L
CRP Min [7]: 1.27 mg/L
CRP Max [8]: 8.51 mg/L
CRP Mean (SD) [8]: 5.26 (2.32) mg/L
CRP Median [8]: 5.04 mg/L
CRP Min [8]: 2.59 mg/L
CRP Max [9]: 8.51 mg/L
CRP Mean (SD) [9]: 4.78 (2.37) mg/L
CRP Median [9]: 5.01 mg/L
CRP Min [9]: 1.27 mg/L
CRP Max [10]: 8.51 mg/L
CRP Mean (SD) [10]: 5.25 (1.89) mg/L
CRP Median [10]: 5.17 mg/L
CRP Min [10]: 2.29 mg/L
CRP Max [11]: 8.51 mg/L
CRP Mean (SD) [11]: 3.78 (2.28) mg/L
CRP Median [11]: 3.12 mg/L
CRP Min [11]: 1.27 mg/L
CRP Max (V3 Week 1-2, all subjects): 13.08 mg/L
CRP Mean (SD) (V3 Week 1-2, all subjects): 4.86 (3.09) mg/L
CRP Median (V3 Week 1-2, all subjects): 4.52 mg/L
CRP Min (V3 Week 1-2, all subjects): 1.77 mg/L
CRP Max [12]: 13.08 mg/L
CRP Mean (SD) [12]: 5.62 (3.21) mg/L
CRP Median [12]: 4.88 mg/L
CRP Min [12]: 2.27 mg/L
CRP Max (V4 Week 4, all subjects): 7.81 mg/L
CRP Mean (SD) (V4 Week 4, all subjects): 3.42 (1.84) mg/L
CRP Median (V4 Week 4, all subjects): 3.04 mg/L
CRP Min (V4 Week 4, all subjects): 0.90 mg/L
CRP Max [13]: 7.81 mg/L
CRP Mean (SD) [13]: 3.94 (1.86) mg/L
CRP Median [13]: 3.27 mg/L
CRP Min [13]: 0.90 mg/L
CRP Max (V5 Week 8, all subjects): 9.20 mg/L
CRP Mean (SD) (V5 Week 8, all subjects): 3.49 (2.06) mg/L
CRP Median (V5 Week 8, all subjects): 3.04 mg/L
CRP Min (V5 Week 8, all subjects): 0.91 mg/L
CRP Max [14]: 9.20 mg/L
CRP Mean (SD) [14]: 4.09 (2.07) mg/L
CRP Median [14]: 4.17 mg/L
CRP Min [14]: 1.15 mg/L
CRP Max (V6 Week 12, all subjects): 8.84 mg/L
CRP Mean (SD) (V6 Week 12, all subjects): 3.41 (2.24) mg/L
CRP Median (V6 Week 12, all subjects): 2.53 mg/L
CRP Min (V6 Week 12, all subjects): 0.61 mg/L
CRP Max [15]: 4.30 mg/L
CRP Mean (SD) [15]: 2.94 (1.20) mg/L
CRP Median [15]: 2.48 mg/L
CRP Min [15]: 2.04 mg/L
CRP Max [16]: 8.84 mg/L
CRP Mean (SD) [16]: 3.13 (2.14) mg/L
CRP Median [16]: 2.53 mg/L
CRP Min [16]: 0.61 mg/L
CRP Max [17]: 8.84 mg/L
CRP Mean (SD) [17]: 4.16 (2.57) mg/L
CRP Median [17]: 3.24 mg/L
CRP Min [17]: 1.88 mg/L
CRP Max [18]: 7.87 mg/L
CRP Mean (SD) [18]: 3.31 (2.28) mg/L
CRP Median [18]: 2.53 mg/L
CRP Min [18]: 0.61 mg/L
CRP Max (V6 Week 12, subjects with CAD): 2.31 mg/L
CRP Mean (SD) (V6 Week 12, subjects with CAD): 1.57 (0.72) mg/L
CRP Median (V6 Week 12, subjects with CAD): 1.88 mg/L
CRP Min (V6 Week 12, subjects with CAD): 0.61 mg/L
